This passage reports IC50 and inhibition results from patent publication US7135466B2 (Kirin Beer Kabushiki Kaisha, priority 1999, dated 2006).

The assay concerns the target T1, PDGF-Ra (Homo sapiens, UniProt P16234).
T1 construct: host or cells: G-292 human osteosarcoma cells
The assay can be described thus: Inhibitory activity against PDGF-Ra phosphorylation by PDGF-AA stimulation using G292. The class given is cell-based. The settings on record: for IC50: > means inhibition at indicated concentration not more than 50%, < and << not less than 50%, read-out: PDGF (E) IC50; for inhibition at 0.1 µM: G292, figure within parentheses in >100( ), at 100 nM, read-out: PDGF (E) inhibition (%) at 100 nM. On the procedure: Measurement of Inhibitory Activity Against PDGF-Ra Phosphorylation by PDGF-AA Stimulation Using G292
G-292 human osteosarcoma cells (Dainippon Pharmaceutical Co. Ltd.) were cultured in a DMEM medium (Dainippon Pharmaceutical Co. Ltd.) containing 10% FBS within an incubator containing 5% carbon dioxide until 80% confluent, and the cells were planted at 3×10^4 cells per well in 96-well flat-bottom plates in the same medium containing 0.1% FBS. After cultivation at 37° C. overnight, a solution of a test compound in dimethyl sulfoxide was added to each well, and a reaction was allowed to proceed at 37° C. for one hr.
After the reaction of the test compound, PDGF-AA (Upstate) was added to 50 ng/ml, and the cells were stimulated at 37° C. for 5 min. Thereafter, the cells were solubilized and shaken at room temperature for 20 min.
This solubilized cell solution was transferred to a 96-well plate coated with aniti-phosphotyrosine antibody PY-20, and a reaction was allowed to proceed at 4° C. overnight. Anti-PDGF-Ra (c-20) (Santa Cruz) was added as a primary antibody, and a reaction was allowed to proceed for one hr. GAR (Anti-rabbit Ig, horseradish peroxidase, Amersham) was then added as a secondary antibody, and a reaction was allowed to proceed for one hr. Color development was carried out using a color development kit for peroxidase (Sumitomo Bakelite Co., Ltd.), and the absorbance was measured at 450 nm.

T1 sequence (P16234 24-1089): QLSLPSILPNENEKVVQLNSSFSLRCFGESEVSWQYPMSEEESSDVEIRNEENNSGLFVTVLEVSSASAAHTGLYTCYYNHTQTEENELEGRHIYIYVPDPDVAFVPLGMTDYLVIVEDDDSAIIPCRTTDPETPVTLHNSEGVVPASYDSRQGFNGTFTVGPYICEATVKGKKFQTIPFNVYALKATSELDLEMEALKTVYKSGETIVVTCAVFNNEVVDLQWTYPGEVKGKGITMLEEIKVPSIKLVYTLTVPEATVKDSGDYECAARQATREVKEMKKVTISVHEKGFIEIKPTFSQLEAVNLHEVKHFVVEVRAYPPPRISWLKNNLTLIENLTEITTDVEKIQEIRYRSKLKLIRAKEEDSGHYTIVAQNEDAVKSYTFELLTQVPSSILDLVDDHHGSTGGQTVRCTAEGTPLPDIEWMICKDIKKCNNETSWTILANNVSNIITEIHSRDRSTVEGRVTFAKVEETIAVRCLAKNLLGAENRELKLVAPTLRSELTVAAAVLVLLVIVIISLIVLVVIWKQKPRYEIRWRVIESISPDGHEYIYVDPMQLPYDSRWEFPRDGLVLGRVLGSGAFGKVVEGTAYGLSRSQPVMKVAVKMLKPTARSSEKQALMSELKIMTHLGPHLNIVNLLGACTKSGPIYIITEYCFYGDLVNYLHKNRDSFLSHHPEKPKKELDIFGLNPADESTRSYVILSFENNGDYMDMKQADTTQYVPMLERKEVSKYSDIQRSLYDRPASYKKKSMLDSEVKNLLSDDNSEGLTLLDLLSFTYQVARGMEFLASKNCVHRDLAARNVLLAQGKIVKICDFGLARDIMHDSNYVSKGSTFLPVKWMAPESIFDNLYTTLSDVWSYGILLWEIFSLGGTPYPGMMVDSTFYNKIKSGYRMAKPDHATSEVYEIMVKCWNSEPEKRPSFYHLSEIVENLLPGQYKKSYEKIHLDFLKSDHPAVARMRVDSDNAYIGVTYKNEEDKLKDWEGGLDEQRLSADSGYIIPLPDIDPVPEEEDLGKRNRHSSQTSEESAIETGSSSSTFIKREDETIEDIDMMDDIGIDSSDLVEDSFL

On to `COc1cc2nccc(Oc3ccc(NC(=S)NN4CCCCC4)c(C)c3C)c2cc1OC` [Example 521, N-{4-[(6,7-Dimethoxy-4-quinolyl)oxy]-2,3-dimethylphenyl}-N′-(1-piperidinyl)thiourea], for which the IC50 is over 100 nM.

In the case of `COc1cc2nccc(Oc3cc(C)c(NC(=S)NN4CCCCC4)cc3C)c2cc1OC` [Example 522, N-{4-[(6,7-Dimethoxy-4-quinolyl)oxy]-2,5-dimethylphenyl}-N′-(1-piperidinyl)thiourea], the IC50 is over 100 nM.

Take `CCN(CC)CCCNC(=S)Nc1cc(C)c(Oc2ccnc3cc(OC)c(OC)cc23)cc1C` [Example 551, N-{4-[(6,7-Dimethoxy-4-quinolyl)oxy]-2,5-dimethylphenyl}-N′-(3-diethylaminopropyl)thiourea]: the 50% inhibitory concentration (IC50) was over 100 nM and the inhibition at 0.1 µM is 19%.

For the compound `COc1cc2nccc(Oc3cc(C)c(NC(=S)NCCCN4CCCCC4C)cc3C)c2cc1OC` (centres unmarked) [Example 554, N-{4-[(6,7-Dimethoxy-4-quinolyl)oxy]-2,5-dimethylphenyl}-N′-[3-(2-methylpiperidinyl)propyl]thiourea], the IC50 is over 100 nM and the inhibition at 0.1 µM stood at 14%.

Consider `COc1cc2nccc(Oc3ccc(NC(=O)NC4CCN(CC5CCCCC5)C4)cc3)c2cc1OC` (centres unmarked) [Example 585, N-[1-(Cyclohexylmethyl)tetrahydro-1H-3-pyrrolyl]-N′-{4-[(6,7-dimethoxy-4-quinolyl)oxy]phenyl}urea], for which the half-inhibitory concentration (IC50) was over 100 nM and the inhibition at 0.1 µM was found to be 32%.

Consider `CCN(CC)C(C)CNC(=S)Nc1ccc(Oc2ccnc3cc(OC)c(OC)cc23)cc1` (centres unmarked) [Example 588, N-{4-[(6,7-Dimethoxy-4-quinolyl)oxy]phenyl}-N′-(2-diethylaminopropyl)thiourea], for which the IC50 came to 36 nM.

As to `COc1cc2nccc(Oc3ccc(NC(=O)NN4CCCCC4)c(C)c3C)c2cc1OC` [Example 593, N-{4-[(6,7-Dimethoxy-4-quinolyl)oxy]-2,3-dimethylphenyl}-N′-(1-piperidinyl)urea], the IC50 worked out at 51 nM.

In the case of `CCN(CC)CCNC(=O)Nc1ccc(Oc2ccnc3cc(OC)c(OC)cc23)cc1C` [Example 649, N-[2-(Diethylamino)ethyl]-N′-{4-[(6,7-dimethoxy-4-quinolyl)oxy]-2-methylphenyl}urea], the IC50 was determined as 39 nM.

With `COc1cc2ncnc(Oc3ccc(NC(=O)NCCN(C(C)C)C(C)C)c([N+](=O)[O-])c3)c2cc1OC` [Example 659, N-[2-(Diisopropylamino)ethyl]-N′-{4-[(6,7-dimethoxy-4-quinazolinyl)oxy]-2-nitrophenyl}urea], the IC50 came out at 19 nM.

As to `COc1ccc(CCC(=O)NC(=S)Nc2ccc(Oc3ccnc4cc(OC)c(OC)cc34)c(Cl)c2)cc1OC` [Example 712, N-{3-Chloro-4-[(6,7-dimethoxy-4-quinolyl)oxy]phenyl}-N′-[3-(3,4-dimethoxyphenyl)propanoyl]thiourea], the IC50 came to 83 nM.

With `COc1cc2nccc(Oc3cc(C)c(NC(=S)NC(=O)c4cc(C)oc4C)cc3C)c2cc1OC` [Example 717, N-{4-[(6,7-Dimethoxy-4-quinolyl)oxy]-2,5-dimethylphenyl}-N′-[(2 5-dimethyl-3-furyl)carbonyl]thiourea], the half-inhibitory concentration (IC50) was over 100 nM and the inhibition at 0.1 µM stood at 8%.

Consider `COc1cc2nccc(Oc3ccc(NC(=S)NC(=O)CCCCc4ccccc4)cc3)c2cc1OC` [Example 727, N-{4-[(6,7-Dimethoxy-4-quinolyl)oxy]phenyl}-N′-(5-phenylpentanoyl)thiourea], for which the IC50 stood at 52 nM.

Regarding `COc1cc2nccc(Oc3ccc(NC(=S)NC(=O)CCc4ccccc4C)cc3Cl)c2cc1OC` [Example 732, N-{3-Chloro-4-[(6,7-dimethoxy-4-quinolyl)oxy]phenyl}-N′-[3-(2-methylphenyl)propanoyl]thiourea], the half-maximal inhibitory concentration (IC50) amounted to 48 nM.

Regarding `COc1cc2nccc(Oc3ccc(NC(=S)NC(=O)Cc4ccccc4[N+](=O)[O-])cc3)c2cc1OC` [Example 735, N-{4-[(6,7-Dimethoxy-4-quinolyl)oxy]phenyl}-N′-[2-(2-nitrophenyl)acetyl]thiourea], the concentration for half-maximal inhibition (IC50) is 15 nM.

As for `COc1cc2nccc(Oc3ccc(NC(=S)NC(=O)Cc4ccccc4[N+](=O)[O-])cc3Cl)c2cc1OC` [Example 736, N-{3-Chloro-4-[(6,7-dimethoxy-4-quinolyl)oxy]phenyl}-N′-[2-(2-nitrophenyl)acetyl]thiourea], the IC50 amounted to 72 nM.

Consider `CCC(Oc1ccccc1)C(=O)NC(=S)Nc1ccc(Oc2ccnc3cc(OC)c(OC)cc23)cc1` (centres unmarked) [Example 741, N-{4-[(6,7-Dimethoxy-4-quinolyl)oxy]phenyl}-N′-(2-phenoxybutanoyl)thiourea], for which the IC50 worked out at 49 nM.

For `CCC(Oc1ccccc1)C(=O)NC(=S)Nc1ccc(Oc2ccnc3cc(OC)c(OC)cc23)c(Cl)c1` (centres unmarked) [Example 742, N-{3-Chloro-4-[(6,7-dimethoxy-4-quinolyl)oxy]phenyl}-N′-(2-phenoxybutanoyl)thiourea], the IC50 worked out at 92 nM.

As to `COc1cc2nccc(Oc3ccc(NC(=S)NC(=O)[C@H](C)c4ccccc4)cc3Cl)c2cc1OC` [Example 744, N-{3-Chloro-4-[(6,7-dimethoxy-4-quinolyl)oxy]phenyl}-N′-[(2R)-2-phenylpropanoyl]thiourea], the IC50 came to 40 nM.

Turning to `COc1cc2nccc(Oc3ccc(NC(=S)NC(=O)C(C)Oc4ccccc4)cc3)c2cc1OC` (centres unmarked) [Example 745, N-{4-[(6,7-Dimethoxy-4-quinolyl)oxy]phenyl}-N′-(2-phenoxypropanoyl)thiourea], the half-inhibitory concentration (IC50) was found to be 53 nM.

Turning to `COc1cc2nccc(Oc3ccc(NC(=S)NC(=O)C(C)Oc4ccccc4)cc3Cl)c2cc1OC` (centres unmarked) [Example 746, N-{3-Chloro-4-[(6,7-dimethoxy-4-quinolyl)oxy]phenyl}-N′-(2-phenoxypropanoyl)thiourea], the 50% inhibitory concentration (IC50) is over 100 nM and the inhibition at 0.1 µM worked out at 31%.

Take `CCC(C(=O)NC(=S)Nc1ccc(Oc2ccnc3cc(OC)c(OC)cc23)c(Cl)c1)c1ccccc1` (centres unmarked) [Example 748, N-{3-Chloro-4-[(6,7-dimethoxy-4-quinolyl)oxy]phenyl}-N′-(2-phenylbutanoyl)thiourea]: the IC50 was determined as 85 nM.

Turning to `CCCCOc1ccc(C(=O)NC(=S)Nc2ccc(Oc3ccnc4cc(OC)c(OC)cc34)c(Cl)c2)cc1` [Example 752, N-(4-Butoxybenzoyl)-N′-{3-chloro-4-[(6,7-dimethoxy-4-quinolyl)oxy]phenyl}thiourea], the half-maximal inhibitory concentration (IC50) was over 100 nM and the inhibition at 0.1 µM came to 37%.

For `CCCCCOc1ccc(C(=O)NC(=S)Nc2ccc(Oc3ccnc4cc(OC)c(OC)cc34)c(Cl)c2)cc1` [Example 754, N-{3-Chloro-4-[(6,7-dimethoxy-4-quinolyl)oxy]phenyl}-N′-[4-(pentyloxy)benzoyl]thiourea], the IC50 is over 100 nM and the inhibition at 0.1 µM was determined as 7%.

On to `CCCCCCOc1ccc(C(=O)NC(=S)Nc2ccc(Oc3ccnc4cc(OC)c(OC)cc34)cc2)cc1` [Example 755, N-{4-[(6,7-Dimethoxy-4-quinolyl)oxy]phenyl}-N′-[4-(hexyloxy)benzoyl]thiourea], for which the IC50 is over 100 nM and the inhibition at 0.1 µM was determined as 3%.

Turning to `COc1cc2nccc(Oc3ccc(NC(=S)NC(=O)C(C)(C)Oc4ccc(Cl)cc4)cc3)c2cc1OC` [Example 757, N-[2-(4-Chlorophenoxy)-2-methylpropanoyl]-N′-{4-[(6,7-dimethoxy-4-quinolyl)oxy]phenyl}thiourea], the half-maximal inhibitory concentration (IC50) was over 100 nM and the inhibition at 0.1 µM was found to be 45%.

`COc1cc2nccc(Oc3ccc(NC(=S)NC(=O)C(C)(C)Oc4ccc(Cl)cc4)cc3Cl)c2cc1OC` [Example 758, N-{3-Chloro-4-[(6,7-dimethoxy-4-quinolyl)oxy]phenyl}-N′-[2-(4-chlorophenoxy)-2-methylpropanoyl]thiourea]: the 50% inhibitory concentration (IC50) was over 100 nM and the inhibition at 0.1 µM is 18%.

In the case of `COc1cc2nccc(Oc3ccc(NC(=S)NC(=O)C(OC)c4ccccc4)cc3Cl)c2cc1OC` (centres unmarked) [Example 762, N-{3-Chloro-4-[(6,7-dimethoxy-4-quinolyl)oxy]phenyl}-N′-(2-methoxy-2-phenylacetyl)thiourea], the IC50 was over 100 nM.

As for `COc1cc2nccc(Oc3ccc(NC(=S)NC(=O)C4CCCO4)cc3Cl)c2cc1OC` (centres unmarked) [Example 766, N-{3-Chloro-4-[(6,7-dimethoxy-4-quinolyl)oxy]phenyl}-N′-tetrahydro-2-furanylcarbonylthiourea], the concentration for half-maximal inhibition (IC50) is over 100 nM and the inhibition at 0.1 µM is 45%.

Regarding `COc1cc2ncnc(Oc3ccc(O)cc3)c2cc1OC` [Example 773, 4-[(6,7-Dimethoxy-4-quinazolinyl)oxy]phenol], the 50% inhibitory concentration (IC50) was over 100 nM.

For the compound `COC(=O)COc1ccc(Oc2ncnc3cc(OC)c(OC)cc23)cc1` [Example 774, Methyl 2-{4-[(6,7-dimethoxy-4-quinazolinyl)oxy]phenoxy}acetate], the concentration for half-maximal inhibition (IC50) is over 100 nM and the inhibition at 0.1 µM worked out at 17%.

On to `COc1cc2ncnc(Oc3ccc(OCC(=O)O)cc3)c2cc1OC` [Example 775, 2-{4-[(6,7-Dimethoxy-4-quinazolinyl)oxy]phenoxy}acetic acid], for which the half-maximal inhibitory concentration (IC50) is over 100 nM and the inhibition at 0.1 µM was 22%.
